Test results from ChEMBL document CHEMBL3351946, “Design and synthesis of potent antitumor water-soluble phenyl N-mustard-benzenealkylamide conjugates via a bioisostere approach” (Eur J Med Chem, 2014).
The source made the active and inactive calls. No cut-off for these calls is given here.

Key:
[1] = system: CCRF-CEM; assay: Cytotoxicity against vinblastine-resistant human CCRF-CEM cells assessed as growth inhibition after 72 hrs by Alamar Blue assay; assay type: functional, cell-based
[2] = Cytotoxicity against human PC3 cells assessed as growth inhibition after 72 hrs by Alamar Blue assay; assay type: functional, cell-based; conditions: PC-3, 72 h
[3] = Antitumor activity against human PC3 cells xenografted in nude mouse assessed as tumor growth inhibition at 40 mg/kg,iv administered every 2 days for 5 doses measured on day 21 relative to control; assay type: functional, PC-3
[4] = Cytotoxicity against human H460 cells assessed as growth inhibition after 72 hrs by Alamar Blue assay; assay type: functional, cell-based; conditions: NCI-H460, 72 h
[5] = Cytotoxicity against human DLD1 cells assessed as growth inhibition after 72 hrs by Alamar Blue assay; assay type: functional, cell-based; conditions: DLD-1, 72 h
[6] = Antitumor activity against human HCT116 cells xenografted in nude mouse assessed as tumor growth inhibition at 30 mg/kg,iv qd administered for 6 days measured on day 15 relative to control; assay type: functional, HCT-116
[7] = Antitumor activity against human PC3 cells xenografted in nude mouse assessed as tumor growth inhibition at 30 mg/kg,iv qd administered for 6 days measured on day 21 relative to control; assay type: functional, PC-3
[8] = Antitumor activity against human PC3 cells xenografted in nude mouse assessed as tumor growth inhibition at 40 mg/kg,iv administered every 2 days for 5 doses measured on day 38 relative to control; assay type: functional; conditions: PC-3, iv, read-out: TGI
[9] = Antitumor activity against human H460 cells xenografted in nude mouse assessed as tumor growth inhibition at 30 mg/kg,iv qd administered for 6 days measured on day 37 relative to control; assay type: functional; conditions: NCI-H460, iv, read-out: TGI
[10] = system: Mus musculus; assay: Toxicity in nude mouse xenografted with human HCT116 cells assessed as body weight loss at 30 mg/kg,iv qd administered for 6 days measured on day 13 relative to control; assay type: organism-based, HCT-116; parameters: dose 30 mg/kg; conditions: in vivo, 144 h
[11] = system: Mus musculus; assay: Toxicity in nude mouse xenografted with human PC3 cells assessed as body weight loss at 40 mg/kg,iv administered every 2 days for 5 doses measured on day 16 relative to control; assay type: organism-based, PC-3; parameters: dose 40 mg/kg; conditions: in vivo, 48 h
[12] = system: Mus musculus; assay: Toxicity in nude mouse xenografted with human PC3 cells assessed as body weight loss at 50 mg/kg,iv administered every 2 days for 5 doses measured on day 16 relative to control; assay type: organism-based, PC-3; parameters: dose 50 mg/kg; conditions: in vivo, 48 h
[13] = system: Mus musculus; assay: Toxicity in nude mouse xenografted with human HCT116 cells assessed as change in body weight at 30 mg/kg,iv qd administered for 6 days measured on day 31 relative to control; assay type: organism-based, HCT-116; parameters: dose 30 mg/kg; conditions: in vivo, 144 h
[14] = system: Mus musculus; assay: Toxicity in nude mouse xenografted with human PC3 cells assessed as change in body weight at 50 mg/kg,iv administered every 2 days for 5 doses measured on day 38 relative to control; assay type: organism-based, PC-3; parameters: dose 50 mg/kg; conditions: in vivo, 48 h
[15] = system: PC-3; assay: Antitumor activity against human PC3 cells xenografted in nude mouse assessed as survival at 40 mg/kg,iv administered every 2 days for 5 doses; assay type: functional, organism-based; parameters: dose 40 mg/kg
[16] = system: PC-3; assay: Antitumor activity against human PC3 cells xenografted in nude mouse assessed as survival at 50 mg/kg,iv administered every 2 days for 5 doses; assay type: functional, organism-based; parameters: dose 50 mg/kg
[17] = Antitumor activity against human HCT116 cells xenografted in nude mouse assessed as tumor growth inhibition at 75 mg/kg,[…] ip administered every 7 days for 2 doses relative to control; assay type: functional; conditions: HCT-116, ip, 168 h, route intraperitoneal, read-out: TGI
[18] = Induction of pEGFP-N1 DNA (unknown origin) interstand crosslinking after 2 hrs by alkaline agarose gel shift assay
[19] = Cell cycle arrest in human HCT116 cells assessed as accumulation at G1 phase at 1 uM after 24 hrs by FACS flow cytometric analysis (reference value: 48.75 +/- 3.69%); assay type: functional, cell-based; conditions: HCT-116
[20] = Cell cycle arrest in human HCT116 cells assessed as accumulation at G1 phase at 2 uM after 24 hrs by FACS flow cytometric analysis (reference value: 48.75 +/- 3.69%); assay type: functional, cell-based; conditions: HCT-116
[21] = Cell cycle arrest in human HCT116 cells assessed as accumulation at G2/M phase at 2 uM after 24 hrs by FACS flow cytometric analysis (reference value: 31.55 +/- 4.63%); assay type: functional, cell-based; conditions: HCT-116
[22] = Cell cycle arrest in human HCT116 cells assessed as accumulation at sub-G1 phase at 4 uM after 24 hrs by FACS flow cytometric analysis (reference value: 1.37 +/- 0.95%); assay type: functional, cell-based; conditions: HCT-116
[23] = Cell cycle arrest in human HCT116 cells assessed as accumulation at S phase at 4 uM after 24 hrs by FACS flow cytometric analysis (reference value: 18.71 +/- 2.25%); assay type: functional, cell-based; conditions: HCT-116
[24] = Cell cycle arrest in human HCT116 cells assessed as accumulation at G2/M phase at 4 uM after 24 hrs by FACS flow cytometric analysis (reference value: 31.55 +/- 4.63%); assay type: functional, cell-based; conditions: HCT-116
[25] = Cell cycle arrest in human HCT116 cells assessed as accumulation at G1 phase at 2 uM after 72 hrs by FACS flow cytometric analysis (reference value: 76.29 +/- 2.65%); assay type: functional, cell-based; conditions: HCT-116
[26] = Cell cycle arrest in human HCT116 cells assessed as accumulation at G2/M phase at 2 uM after 72 hrs by FACS flow cytometric analysis (reference value: 12.82 +/- 2.19%); assay type: functional, cell-based; conditions: HCT-116
[27] = Cell cycle arrest in human HCT116 cells assessed as accumulation at G2/M phase at 4 uM after 72 hrs by FACS flow cytometric analysis (reference value: 12.82 +/- 2.19%); assay type: functional, cell-based; conditions: HCT-116
[28] = Cell cycle arrest in human HCT116 cells assessed as accumulation at G2/M phase after 24 hrs by FACS flow cytometric analysis; assay type: functional, cell-based; conditions: HCT-116
[29] = system: HCT-116; assay: Induction of apoptosis in human HCT116 cells assessed as caspase-3 cleavage at 1 to 4 uM after 24 hrs by Western blot analysis; assay type: functional, cell-based
[30] = system: Mus musculus; assay: Induction of apoptosis in HCT116 cells xenografted in nude mouse at 30 mg/kg, iv qd administered for 6 days measured 24 hrs post last dose by TUNEL assay; assay type: functional, organism-based; parameters: dose 30 mg/kg; conditions: HCT-116
[31] = Terminal half life in Sprague-Dawley rat at 5 mg/kg, iv; assay type: ADME, organism-based; parameters: dose 5 mg/kg, route intravenous; conditions: in vivo, read-out: beta t1/2 (converted)
[32] = system: Mus musculus; assay: Toxicity in iv dosed CD-1 (ICR) mouse assessed as piloerection measured for 14 days; assay type: organism-based; conditions: in vivo, 336 h
[33] = system: Mus musculus; assay: Toxicity in iv dosed CD-1 (ICR) mouse assessed as hypoactivity measured for 14 days; assay type: organism-based; conditions: in vivo, 336 h
[34] = system: Mus musculus; assay: Toxicity in iv dosed CD-1 (ICR) mouse assessed as swelling of nose measured for 14 days; assay type: organism-based; conditions: in vivo, 336 h
[35] = system: Mus musculus; assay: Toxicity in iv dosed CD-1 (ICR) mouse assessed as hunch posture measured for 14 days; assay type: organism-based; conditions: in vivo, 336 h
[36] = system: Mus musculus; assay: Toxicity in iv dosed CD-1 (ICR) mouse assessed as feces stain measured for 14 days; assay type: organism-based; conditions: in vivo, 336 h
[37] = system: Mus musculus; assay: Toxicity in CD-1 (ICR) mouse assessed as decrease in food consumption at 75 to 105 mg/kg, iv measured on day 8; assay type: organism-based; parameters: dose 75-105 mg/kg, route intravenous; conditions: in vivo
[38] = system: Mus musculus; assay: Toxicity in CD-1 (ICR) mouse assessed as gross lesions in spleen at 150 mg/kg, iv measured for 14 days; assay type: organism-based; parameters: dose 150 mg/kg, route intravenous; conditions: in vivo, 336 h

Question: With `CCN(CC)CC(=O)Nc1ccc(NC(=O)Nc2ccc(N(CCCl)CCCl)cc2)cc1` as the molecule, how does the IC50 [1] read?
Answer: 2160 nM

Question: What about the IC50 [2] of the same molecule?
Answer: 3570 nM

Question: What about the “%max” value [3] of the same molecule?
Answer: 68%

Question: And the IC50 [4]?
Answer: 930 nM

Question: What about the IC50 [5] of the same molecule?
Answer: 3850 nM

Question: And the “%max” value [6]?
Answer: 91%

Question: What about the “%max” value [7] of the same molecule?
Answer: 56%

Question: And the inhibition in vivo at 40 mg/kg [8]?
Answer: 3%

Question: And the inhibition in vivo at 30 mg/kg [9]?
Answer: 53%

Question: What about the “body weight change relative to control” value [10] of the same molecule?
Answer: -5%

Question: And the “%max” value [11]?
Answer: -15%

Question: And the “%max” value [12]?
Answer: -16%

Question: And the Activity [13]?
Answer: 9%

Question: And the Activity [14]?
Answer: -8%

Question: And the Activity [15]?
Answer: Active

Question: What about the Activity [16] of the same molecule?
Answer: Active

Question: And the inhibition in vivo at 75 mg/kg [17]?
Answer: 54%

Question: What about the Activity [18] of the same molecule?
Answer: Dose-dependent effect

Question: What about the Activity [19] of the same molecule?
Answer: 17.3%

Question: What about the Activity [20] of the same molecule?
Answer: 11.8%

Question: And the Activity [21]?
Answer: 64.3%

Question: What about the Activity [22] of the same molecule?
Answer: 4.31%

Question: And the Activity [23]?
Answer: 27.6%

Question: What about the Activity [24] of the same molecule?
Answer: 56.3%

Question: And the Activity [25]?
Answer: 38.7%

Question: What about the Activity [26] of the same molecule?
Answer: 29.2%

Question: What about the Activity [27] of the same molecule?
Answer: 41.4%

Question: What about the Activity [28] of the same molecule?
Answer: Dose-dependent effect

Question: And the Activity [29]?
Answer: Active

Question: What about the Activity [30] of the same molecule?
Answer: Active

Question: And the half-life [31]?
Answer: 21.6 min

Question: And the Activity [32]?
Answer: Dose-dependent effect

Question: And the Activity [33]?
Answer: Dose-dependent effect

Question: What about the Activity [34] of the same molecule?
Answer: Dose-dependent effect

Question: And the Activity [35]?
Answer: Dose-dependent effect

Question: What about the Activity [36] of the same molecule?
Answer: Dose-dependent effect

Question: What about the Activity [37] of the same molecule?
Answer: Toxic

Question: What about the Activity [38] of the same molecule?
Answer: Toxic
